Assay results as given in US20200216441A1, “PESTICIDALLY ACTIVE HETEROCYCLIC DERIVATIVES WITH SULFUR CONTAINING SUBSTITUENTS” (SYNGENTA PARTICIPATIONS AG, priority 2017, published 2020).

How the values were obtained:
[1] = test system: Myzus persicae (Green Peach Aphid); assay: whole plant or invertebrate; type: in vivo; conditions: 144 h, test rate of 24 ppm, systemic, roots of infested pea seedlings in test solution, 6 days
[2] = test system: Diabrotica Balteata (Corn Root Worm); assay: Diabrotica balteata (Corn Root Worm); conditions: in Zea mays, 96 h, read-out: effect in at least one of the two categories (mortality or growth inhibition)
[3] = test system: Spodoptera littoralis (Egyptian Cotton Leaf Worm); assay: whole plant or invertebrate; conditions: in Gossypium barbadense, foliar, 72 h, read-out: control (mortality, anti-feeding effect, growth inhibition)
[4] = test system: Myzus persicae (Green Peach Aphid); assay: whole plant or invertebrate; conditions: foliar, 144 h
[5] = test system: Euschistus heros (Neotropical Brown Stink Bug); assay: whole plant or invertebrate; type: in vivo; conditions: 120 h, application rate of 200 ppm, N2 nymphs on sprayed soybean leaves, 5 days after infestation, read-out: effect in at least one of the two categories (mortality or growth inhibition)
[6] = test system: Bemisia tabaci (Cotton White Fly); conditions: in Gossypium hirsutum, foliar, 144 h
[7] = test system: Plutella xylostella (Diamond Back Moth); assay: whole plant or invertebrate; type: in vivo; conditions: 120 h, application rate of 200 ppm, L2 larvae on treated artificial diet, 5 days after infestation, read-out: effect in at least one of the two categories (mortality or growth inhibition)
[8] = test system: Tetranychus urticae (Two-Spotted Spider Mite); conditions: foliar, 192 h

CCS(=O)(=O)c1cc(OC(C)C)cnc1-c1nc2cc(S(=O)(=O)C(F)(F)F)ncc2n1C [Compound P72, 2-(3-ethylsulfonyl-5-isopropoxy-2-pyridyl)-3-methyl-6-(trifluoromethylsulfonyl)imidazo[4,5-c]pyridine]
≥ 80%: mortality at 24 ppm [1] | mortality at 200 ppm [2] | mortality at 200 ppm [3] | mortality at 200 ppm [4] | percent effect (mortality or growth inhibition) at 200 ppm [5] | mortality at 200 ppm [6] | percent effect (mortality or growth inhibition) at 200 ppm [7]

CCS(=O)(=O)c1cc(OC(CF)CF)ccc1-c1nc2cc(C(F)(F)F)ncc2n1C [Compound P100, 2-[2-ethylsulfonyl-4-[2-fluoro-1-(fluoromethyl)ethoxy]phenyl]-3-methyl-6-(trifluoromethyl)imidazo[4,5-c]pyridine]
≥ 80%: mortality at 24 ppm [1] | mortality at 200 ppm [2] | mortality at 200 ppm [3] | mortality at 200 ppm [4] | percent effect (mortality or growth inhibition) at 200 ppm [5] | mortality at 200 ppm [6] | percent effect (mortality or growth inhibition) at 200 ppm [7]

CCS(=O)(=O)c1cc(OC(C)F)cnc1-c1nc2cc(C(F)(F)F)ncc2n1C (stereo not shown) [Compound P40, 2-[3-ethylsulfonyl-5-(1-fluoroethoxy)-2-pyridyl]-3-methyl-6-(trifluoromethyl)imidazo[4,5-c]pyridine]
≥ 80%: mortality at 24 ppm [1] | mortality at 200 ppm [2] | mortality at 200 ppm [3] | mortality at 200 ppm [4] | percent effect (mortality or growth inhibition) at 200 ppm [5] | mortality at 200 ppm [6] | percent effect (mortality or growth inhibition) at 200 ppm [7]

CCS(=O)(=O)c1cc(OC(C)C)cnc1-c1nc2cc(S(=O)(=O)C(F)F)ncc2n1C [Compound P88, 6-(difluoromethylsulfonyl)-2-(3-ethylsulfonyl-5-isopropoxy-2-pyridyl)-3-methyl-imidazo[4,5-c]pyridine]
≥ 80%: mortality at 200 ppm [8] | mortality at 24 ppm [1] | mortality at 200 ppm [3] | mortality at 200 ppm [4] | percent effect (mortality or growth inhibition) at 200 ppm [5] | percent effect (mortality or growth inhibition) at 200 ppm [7]

CCS(=O)(=O)c1cc(OC2CC(F)(F)C2)cnc1-c1nc2cc(C(F)(F)F)ncc2n1C [Compound P42, 2-[5-(3,3-difluorocyclobutoxy)-3-ethylsulfonyl-2-pyridyl]-3-methyl-6-(trifluoromethyl)imidazo[4,5-c]pyridine]
≥ 80%: mortality at 24 ppm [1] | mortality at 200 ppm [2] | mortality at 200 ppm [3] | mortality at 200 ppm [4] | percent effect (mortality or growth inhibition) at 200 ppm [5] | mortality at 200 ppm [6] | percent effect (mortality or growth inhibition) at 200 ppm [7]

CCS(=O)(=O)c1cc(OC(C)(C)CF)cnc1-c1nc2cc(C(F)(F)F)ncc2n1C [Compound P30, 2-[3-ethylsulfonyl-5-(2-fluoro-1,1-dimethyl-ethoxy)-2-pyridyl]-3-methyl-6-(trifluoromethyl)imidazo[4,5-c]pyridine]
≥ 80%: mortality at 24 ppm [1] | mortality at 200 ppm [2] | mortality at 200 ppm [3] | mortality at 200 ppm [4] | percent effect (mortality or growth inhibition) at 200 ppm [5] | mortality at 200 ppm [6] | percent effect (mortality or growth inhibition) at 200 ppm [7]

CCS(=O)(=O)c1cc(OCC(C)C)cnc1-c1nc2cc(C(F)(F)F)ncc2n1C [Compound P75, 2-(3-ethylsulfonyl-5-isobutoxy-2-pyridyl)-3-methyl-6-(trifluoromethyl)imidazo[4,5-c]pyridine]
≥ 80%: mortality at 24 ppm [1] | mortality at 200 ppm [2] | mortality at 200 ppm [3] | mortality at 200 ppm [4] | percent effect (mortality or growth inhibition) at 200 ppm [5] | mortality at 200 ppm [6] | percent effect (mortality or growth inhibition) at 200 ppm [7]

CCS(=O)(=O)c1cc(OCCSC)ccc1-c1nc2cc(C(F)(F)F)ncc2n1C [Compound P104, 2-[2-ethylsulfonyl-4-(2-methylsulfanylethoxy)phenyl]-3-methyl-6-(trifluoromethyl)imidazo[4,5-c]pyridine]
≥ 80%: mortality at 200 ppm [8] | mortality at 24 ppm [1] | mortality at 200 ppm [2] | mortality at 200 ppm [4] | percent effect (mortality or growth inhibition) at 200 ppm [5] | mortality at 200 ppm [6]

CCS(=O)(=O)c1cc(OC(C)C)cnc1-c1nc2cc([S+]([O-])C(F)F)ncc2n1C (stereo not shown) [Compound P87, 6-(difluoromethylsulfinyl)-2-(3-ethylsulfonyl-5-isopropoxy-2-pyridyl)-3-methyl-imidazo[4,5-c]pyridine]
≥ 80%: mortality at 200 ppm [8] | mortality at 24 ppm [1] | mortality at 200 ppm [3] | mortality at 200 ppm [4] | percent effect (mortality or growth inhibition) at 200 ppm [5] | percent effect (mortality or growth inhibition) at 200 ppm [7]

CCS(=O)(=O)c1cc(OCC(F)(F)F)cnc1-c1nc2cc(C(F)(F)F)ncc2n1C [Compound P15, 2-[3-ethylsulfonyl-5-(2,2,2-trifluoroethoxy)-2-pyridyl]-3-methyl-6-(trifluoromethyl)imidazo[4,5-c]pyridine]
≥ 80%: mortality at 24 ppm [1] | mortality at 200 ppm [2] | mortality at 200 ppm [3] | mortality at 200 ppm [4] | percent effect (mortality or growth inhibition) at 200 ppm [5] | mortality at 200 ppm [6] | percent effect (mortality or growth inhibition) at 200 ppm [7]

CCS(=O)(=O)c1cc(OCC(F)F)cnc1-c1nc2cc(C(F)(F)F)ncc2n1C [Compound P16, 2-[5-(2,2-difluoroethoxy)-3-ethylsulfonyl-2-pyridyl]-3-methyl-6-(trifluoromethyl)imidazo[4,5-c]pyridine]
≥ 80%: mortality at 24 ppm [1] | mortality at 200 ppm [2] | mortality at 200 ppm [3] | mortality at 200 ppm [4] | percent effect (mortality or growth inhibition) at 200 ppm [5] | mortality at 200 ppm [6] | percent effect (mortality or growth inhibition) at 200 ppm [7]

CCS(=O)(=O)c1cc(OCCOC)cnc1-c1nc2cc(C(F)(F)F)ncc2n1C [Compound P8, 2-[3-ethylsulfonyl-5-(2-methoxyethoxy)-2-pyridyl]-3-methyl-6-(trifluoromethyl)imidazo[4,5-c]pyridine]
≥ 80%: mortality at 24 ppm [1] | mortality at 200 ppm [2] | mortality at 200 ppm [3] | mortality at 200 ppm [4] | percent effect (mortality or growth inhibition) at 200 ppm [5] | mortality at 200 ppm [6] | percent effect (mortality or growth inhibition) at 200 ppm [7]

CCS(=O)(=O)c1cc(OCCCC#N)cnc1-c1nc2cc(C(F)(F)F)ncc2n1C [Compound P70, 4-[[5-ethylsulfonyl-6-[3-methyl-6-(trifluoromethyl)imidazo[4,5-c]pyridin-2-yl]-3-pyridyl]oxy]butanenitrile]
≥ 80%: mortality at 24 ppm [1] | mortality at 200 ppm [3] | mortality at 200 ppm [4] | percent effect (mortality or growth inhibition) at 200 ppm [5] | mortality at 200 ppm [6] | percent effect (mortality or growth inhibition) at 200 ppm [7]

CCS(=O)(=O)c1cc(OCC2(C#N)CC2)ccc1-c1nc2cc(C(F)(F)F)ncc2n1C [Compound P101, 1-[[3-ethylsulfonyl-4-[3-methyl-6-(trifluoromethyl)imidazo[4,5-c]pyridin-2-yl]phenoxy]methyl]cyclopropanecarbonitrile]
≥ 80%: mortality at 24 ppm [1] | mortality at 200 ppm [2] | mortality at 200 ppm [3] | mortality at 200 ppm [4] | percent effect (mortality or growth inhibition) at 200 ppm [5] | mortality at 200 ppm [6] | percent effect (mortality or growth inhibition) at 200 ppm [7]
